# Test results: US20230374034A1, “NOVEL BICYCLIC COMPOUNDS” (PRISM BIOLAB CO., LTD., priority 2020, published 2023)
# Tested on: NICD (Notch intracellular domain) CSL-bla reporter in HeLa cells
# Assay: Notch assay (CellSensor T-REx NICD CSL-bla HeLa beta-lactamase reporter; Method 1 / Method 2)
# Format: cell-based
# Conditions: Homo sapiens, 10 μM compound, Method 1 (10× compound prepared in assay medium, added to plated cells), read-out: inhibiton (%) at 10 μM
# Text: We used the CellSensor T-REx™ NICD CSL-bla HeLa cell line, which was engineered by lentiviral transduction of HeLa cells with a Notch response element driving beta-lactamase reporter gene expression (CSL-bla) along with DOX (doxycycline)-inducible NICD (Notch intracellular domain) constructs. Addition of DOX to these cells allows for regulated NICD transcription factor expression and subsequent beta-lactamase expression.
# Specifically, the following protocol was used.
# NOTCH ASSAY PROTOCOL (Method 2)
# • 1. Add 40 nL/well of working concentration of 1000× compound to 384-well assay plate with Echo. • 2. Plate Cells: 35 μl/well of HeLa/T-REx™ NICD CSL-bla cells at 10^3 cells/well complete medium into 384-well plate. • 3. Add 5 μl 8× Doxycycline in Assay Medium to the treated wells, and 5 μl Assay Medium to the Untreated and cell free control wells. • 4. Incubate the assay plate in a humidified 37° C./5% CO2 incubator for 16-20 hours. • 5. Preparation of 6× LiveBLAzer™-FRET B/G Substrate (CCF4-AM) Mixture according to the manual and cell loading should be done in the absence of direct strong lighting. • 6. Remove assay plate from the humidified 37° C./5% CO2 incubator. Add 8 μl of 6× Substrate Mixture from Step 5 to each well. Cover the plate to protect it from light and evaporation. Incubate at room temperature for 4 hours. • 7. Reading an Assay Plate using the following filter selections:
# • 8. Data analysis: Use the assay plate layout to identify the location of the Cell-free wells. These control wells are used for background subtraction. Determine the average emission from the Cell-free wells at both 460 nm (Average Blue Background) and 530 nm(Average Green Background). Subtract the Average Blue Background (data collected at 460 nm) from all of the blue emission data. Subtract the Average Green background (data collected at 530 nm) from all of the green emission data. Calculate the Blue/Green Emission Ratio for each well, by dividing the background-subtracted blue emission values by the background-subtracted green emission values.
# Instead of Step 1 to Step 3, the following Step a to Step d can also be performed. The subsequent steps are the same as Method 2, after Step 4 (Method 1). • a. Plate Cells: 32 μL/well of HeLa/T-REx™ NICD CSL-bla cells at 10^3 cells/well complete medium into 384-well plate. • b. Prepare 10× compounds in assay medium. • c. Add 4 μL compounds or 1% DMSO in assay medium to the cells. • d. Add 4 μL 10×Doxycycline in Assay Medium to the treated wells, and 4 μL Assay Medium to the Untreated and cell free control wells.
# The results are shown in Table 13 (Table 13-1 to Table 13-2).
row,Structure (SMILES),inhibition at 10 µM
1,"CC(C)CCN1CC2N(C(=O)OCc3cccc4ccccc34)O[C@@H](CC(N)=O)C(=O)N2[C@@H](CC2CCCCC2)C1=O (stereo partly drawn) [Compound I-27, (3S,6S)-naphthalen-1-ylmethyl 3-(2-amino-2-oxoethyl)-6-(cyclohexylmethyl)-8-isopentyl-4,7-dioxohexahydropyrazino[2,1-c][1,2,4]oxadiazine-1(6H)-carboxylate]",62.9%
2,"CCCCCCOC(=O)N1O[C@@H](C(C)C)C(=O)N2C1CN(Cc1ccccc1)C(=O)[C@@H]2Cc1ccc(O)cc1 (stereo partly drawn) [Compound I-3, (3S,6S)-hexyl 8-benzyl-6-(4-hydroxybenzyl)-3-isopropyl-4,7-dioxohexahydropyrazino[2,1-c][1,2,4]oxadiazine-1(6H)-carboxylate]",53.6%
3,"CC(C)CCN1CC2N(C(=O)OCc3cccc4ccccc34)O[C@H](CC(N)=O)C(=O)N2[C@@H](Cc2ccccc2)C1=O (stereo partly drawn) [Compound I-21, (3R,6S)-naphthalen-1-ylmethyl 3-(2-amino-2-oxoethyl)-6-benzyl-8-isopentyl-4,7-dioxohexahydropyrazino[2,1-c][1,2,4]oxadiazine-1(6H)-carboxylate]",60%

# Same assay, conditions: Homo sapiens, 10 μM compound, Method 2 (40 nL of 1000× compound added to plate with Echo), read-out: inhibiton (%) at 10 μM
row,Structure (SMILES),inhibition at 10 µM
1,"CC(C)C[C@H]1ON(C(=O)OCc2ccccc2)C2CN(C3CCN(C)CC3)C(=O)[C@H](CCCCNC3CN(C(=O)OC(C)(C)C)C3)N2C1=O (stereo partly drawn) [Compound I-146, benzyl (3R,6S)-6-(4-((1-(tert-butoxycarbonyl)azetidin-3-yl)amino)butyl)-3-isobutyl-8-(1-methylpiperidin-4-yl)-4,7-dioxohexahydropyrazino[2,1-c][1,2,4]oxadiazine-1(6H)-carboxylate]",105%
2,"CCCC[C@H]1C(=O)N(CCc2cccc3ccccc23)CC2N(C(=O)OCCc3ccc(O)cc3)O[C@H](Cc3ccc(O)cc3)C(=O)N21 (stereo partly drawn) [Compound I-45, (3R,6S)-4-hydroxyphenethyl 6-butyl-3-(4-hydroxybenzyl)-8-(2-(naphthalen-1-yl)ethyl)-4,7-dioxohexahydropyrazino[2,1-c][1,2,4]oxadiazine-1(6H)-carboxylate]",54.9%
3,"CC(C)CCOC(=O)N1O[C@H](Cc2ccc(O)cc2)C(=O)N2C1CN([C@@H](CC(C)C)C(=O)NCCc1ccccc1)C(=O)[C@@H]2Cc1ccc(O)cc1 (stereo partly drawn) [Compound I-114, isopentyl (3R,6S)-3,6-bis(4-hydroxybenzyl)-8-((S)-4-methyl-1-oxo-1-(phenethylamino)pentan-2-yl)-4,7-dioxohexahydropyrazino[2,1-c][1,2,4]oxadiazine-1(6H)-carboxylate]",56.3%
4,"CC(C)C[C@H]1ON(CCCC2CCN(S(=O)(=O)c3ccc(C#N)cc3)CC2)C2CN(C3CCN(C)CC3)C(=O)[C@H](CC(C)C)N2C1=O (stereo partly drawn) [Compound I-152, 4-((4-(3-((3R,6S)-3,6-diisobutyl-8-(1-methylpiperidin-4-yl)-4,7-dioxohexahydro-pyrazino[2,1-c][1,2,4]oxadiazin-1(6H)-yl)propyl)piperidin-1-yl)sulfonyl)benzonitrile]",93.5%
5,"CCCCCN1CC2N(C(=O)OCC(C)C)O[C@H](CC3CCCCC3)C(=O)N2[C@@H](CCCCN)C1=O (stereo partly drawn) [Compound I-34, (3R,6S)-isobutyl 6-(4-aminobutyl)-3-(cyclohexylmethyl)-4,7-dioxo-8-pentylhexahydropyrazino [2,1-c][1,2,4]oxadiazine-1(6H)-carboxylate]",120%
6,"CC(C)CCNC(=O)[C@H](Cc1ccc(O)cc1)N1CC2N(C(=O)OCCc3ccc(O)cc3)O[C@H](Cc3ccccc3)C(=O)N2[C@@H](Cc2ccc(O)cc2)C1=O (stereo partly drawn) [Compound I-108, 4-hydroxyphenethyl (3R,6S)-3-benzyl-6-(4-hydroxybenzyl)-8-((S)-3-(4-hydroxyphenyl)-1-(isopentylamino)-1-oxopropan-2-yl)-4,7-dioxohexahydropyrazino[2,1-c][1,2,4]oxadiazine-1(6H)-carboxylate]",72.4%
7,"CC(C)C[C@H]1C(=O)N(C2CCN(C)CC2)CC2N(CCCc3ccccc3)O[C@H](CC3CCCCC3)C(=O)N21 (stereo partly drawn) [Compound I-141, (3R,6S)-3-(cyclohexylmethyl)-6-isobutyl-8-(1-methylpiperidin-4-yl)-1-(3-phenylpropyl) tetrahydropyrazino [2,1-c][1,2,4]oxadiazine-4,7(3H,6H)-dione]",83.1%
8,"CC[C@H](C)OC(=O)N1O[C@H](CC2CCCCC2)C(=O)N2C1CN(CCc1ccccc1)C(=O)[C@@H]2CCCCN (stereo partly drawn) [Compound I-38, (3R,6S)-(S)-sec-butyl 6-(4-aminobutyl)-3-(cyclohexylmethyl)-4,7-dioxo-8-phenethylhexahydropyrazino [2,1-c][1,2,4]oxadiazine-1(6H)-carboxylate]",97.3%
9,"CCCCCCNC(=O)N1O[C@H](Cc2ccccc2)C(=O)N2C1CN(CCC(c1ccccc1)c1ccccc1)C(=O)[C@@H]2CCC(N)=O (stereo partly drawn) [Compound I-57, (3R,6S)-6-(3-amino-3-oxopropyl)-3-benzyl-8-(3,3-diphenylpropyl)-N-hexyl-4,7-dioxohexahydropyrazino[2,1-c][1,2,4]oxadiazine-1(6H)-carboxamide]",63.4%
10,"CC(C)C[C@H]1ON(C(=O)OCc2cccc3ccccc23)C2CN(C3CCN(C)CC3)C(=O)[C@H](CC(C)C)N2C1=O (stereo partly drawn) [Compound I-137, naphthalen-1-ylmethyl (3R,6S)-3,6-diisobutyl-8-(1-methylpiperidin-4-yl)-4,7-dioxohexahydropyrazino[2,1-c][1,2,4]oxadiazine-1(6H)-carboxylate]",81.8%
11,"CC(C)OC(=O)N1O[C@H](CC2CCCCC2)C(=O)N2C1CN(CCc1ccccc1)C(=O)[C@@H]2CCCCN (stereo partly drawn) [Compound I-37, (3R,6S)-isopropyl 6-(4-aminobutyl)-3-(cyclohexylmethyl)-4,7-dioxo-8-phenethylhexahydropyrazino [2,1-c][1,2,4]oxadiazine-1(6H)-carboxylate]",87.3%
12,"CC(C)C[C@H]1ON(C(=O)NCCC(c2ccccc2)c2ccccc2)C2CN(Cc3ccc4ccccc4c3)C(=O)[C@H](CCC(N)=O)N2C1=O (stereo partly drawn) [Compound I-55, (3R,6S)-6-(3-amino-3-oxopropyl)-N-(3,3-diphenylpropyl)-3-isobutyl-8-(naphthalen-2-ylmethyl)-4,7-dioxohexahydropyrazino[2,1-c][1,2,4]oxadiazine-1(6H)-carboxamide]",58.7%
13,"CCCCCOC(=O)N1O[C@H](CC(C)C)C(=O)N2C1CN([C@@H](Cc1ccccc1)C(=O)NCCC(C)C)C(=O)[C@@H]2Cc1ccc(O)cc1 (stereo partly drawn) [Compound I-92, pentyl (3R,6S)-6-(4-hydroxybenzyl)-3-isobutyl-8-((S)-1-(isopentylamino)-1-oxo-3-phenylpropan-2-yl)-4,7-dioxohexahydropyrazino[2,1-c][1,2,4]oxadiazine-1(6H)-carboxylate]",50.1%
14,"O=C1[C@H](CO)N2C(=O)[C@@H](Cc3ccc(O)cc3)ON(C(=O)OCc3ccccc3)C2CN1CCc1cccc2ccccc12 (stereo partly drawn) [Compound I-48, (3R,6S)-benzyl 3-(4-hydroxybenzyl)-6-(hydroxymethyl)-8-(2-(naphthalen-1-yl)ethyl)-4,7-dioxohexahydropyrazino[2,1-c][1,2,4]oxadiazine-1(6H)-carboxylate]",57.3%
15,"CC(C)C[C@H]1ON(C(=O)OCc2ccccc2)C2CN(C3CCN(C)CC3)C(=O)[C@H](CCCCN(Cc3ccccc3)Cc3ccccc3)N2C1=O (stereo partly drawn) [Compound I-144, benzyl (3R,6S)-6-(4-(dibenzylamino)butyl)-3-isobutyl-8-(1-methylpiperidin-4-yl)-4,7-dioxohexahydropyrazino [2,1-c][1,2,4]oxadiazine-1(6H)-carboxylate]",78.1%
